One assay has as its target T1, F508del (Homo sapiens, UniProt P13569, DEL508-508).
T1 construct: expressed in transfected cells
The assay can be described thus: Protocol 2: FRET membrane potential optical assay (VIPR), identification of correction compounds. The assay is classed as cell-based. Conditions: F508del CFTR modulator activity; compounds of Table 1. The method in brief:
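FRET read-out (CC2-DMPE donor, DiSBAC2(3) voltage-sensitive acceptor) of membrane depolarization on VIPR II. Corrector candidates incubated 16 hrs at 37° C. with NIH3T3 cells expressing F508del; temperature correction at 27° C. as positive control; stimulation by 10 μM forskolin, 20 μM genistein, chloride-free gluconate bath.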
T1 sequence (P13569 with tags, fused parts or gaps DEL508-508): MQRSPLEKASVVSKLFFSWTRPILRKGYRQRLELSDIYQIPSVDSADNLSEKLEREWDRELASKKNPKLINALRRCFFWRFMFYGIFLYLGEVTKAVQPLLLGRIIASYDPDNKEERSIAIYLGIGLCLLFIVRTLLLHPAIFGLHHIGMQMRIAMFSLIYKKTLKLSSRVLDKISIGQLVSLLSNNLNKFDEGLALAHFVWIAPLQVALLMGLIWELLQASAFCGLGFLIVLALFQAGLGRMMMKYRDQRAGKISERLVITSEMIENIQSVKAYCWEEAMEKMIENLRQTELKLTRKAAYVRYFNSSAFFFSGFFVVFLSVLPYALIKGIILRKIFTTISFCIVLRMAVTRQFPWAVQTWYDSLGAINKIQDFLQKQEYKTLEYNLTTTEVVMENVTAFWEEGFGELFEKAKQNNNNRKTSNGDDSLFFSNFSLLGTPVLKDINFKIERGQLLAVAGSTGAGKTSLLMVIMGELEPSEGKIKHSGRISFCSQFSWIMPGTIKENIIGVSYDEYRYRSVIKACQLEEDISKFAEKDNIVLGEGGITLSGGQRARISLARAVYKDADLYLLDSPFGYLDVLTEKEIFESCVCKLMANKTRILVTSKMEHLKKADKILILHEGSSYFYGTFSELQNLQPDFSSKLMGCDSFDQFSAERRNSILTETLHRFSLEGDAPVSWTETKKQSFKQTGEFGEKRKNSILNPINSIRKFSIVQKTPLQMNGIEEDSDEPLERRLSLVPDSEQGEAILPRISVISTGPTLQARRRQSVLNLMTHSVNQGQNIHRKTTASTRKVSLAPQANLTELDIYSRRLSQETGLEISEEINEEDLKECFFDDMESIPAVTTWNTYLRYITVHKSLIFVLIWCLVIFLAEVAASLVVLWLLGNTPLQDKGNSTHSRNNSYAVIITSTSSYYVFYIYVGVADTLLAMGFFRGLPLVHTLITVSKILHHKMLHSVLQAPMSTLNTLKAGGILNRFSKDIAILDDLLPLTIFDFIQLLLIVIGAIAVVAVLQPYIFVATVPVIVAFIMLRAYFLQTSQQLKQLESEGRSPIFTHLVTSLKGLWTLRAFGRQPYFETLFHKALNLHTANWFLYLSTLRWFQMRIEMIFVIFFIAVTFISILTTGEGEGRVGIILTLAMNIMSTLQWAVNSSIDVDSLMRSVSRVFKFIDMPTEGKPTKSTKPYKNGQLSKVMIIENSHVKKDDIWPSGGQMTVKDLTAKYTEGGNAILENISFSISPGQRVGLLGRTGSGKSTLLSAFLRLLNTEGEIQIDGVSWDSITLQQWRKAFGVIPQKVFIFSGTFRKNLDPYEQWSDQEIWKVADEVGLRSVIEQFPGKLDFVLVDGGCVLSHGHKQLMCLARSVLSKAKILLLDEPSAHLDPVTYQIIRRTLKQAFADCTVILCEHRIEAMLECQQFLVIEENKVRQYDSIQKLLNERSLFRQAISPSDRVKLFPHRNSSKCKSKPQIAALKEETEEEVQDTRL
In general, EC30 refers to the point of the concentration-response curve where the effect stands at 30%. As to `CC(C)(C)c1ccc(C(=O)NS(=O)(=O)c2cccc(N)n2)c(N2CCC(C3CC3)C2(C)C)n1` (single isomer, unassigned) [Compound 2577, N-[(6-amino-2-pyridyl)sulfonyl]-6-tert-butyl-2-(3-cyclopropyl-2,2-dimethyl-pyrrolidin-1-yl)pyridine-3-carboxamide], the EC30 result is given as “+++ (“+++” means <3 uM)”.

The same assay, now with this note: F508del CFTR modulator activity; compounds of Table 1; read-out: EC30.
Take `CC1CN(c2ncccc2C(=O)NS(=O)(=O)c2cccc(OCc3c(F)cccc3Cl)n2)C(C)(C)C1` (centres unmarked) [Compound 2717]: the EC30 was below 3000 nM.
Same read-out and setting: to `C[C@@H]1CN(c2nc(-c3cc(F)ccc3F)ccc2C(=O)NS(=O)(=O)c2cccnc2N)C(C)(C)C1` [Compound 2105, N-[(2-amino-3-pyridyl)sulfonyl]-6-(2,5-difluorophenyl)-2-[(4S)-2,2,4-trimethylpyrrolidin-1-yl]pyridine-3-carboxamide] belongs below 3000 nM.
For the molecule `Cc1ccc(-c2ccc(C(=O)NS(=O)(=O)c3cccnc3N)c(N3C[C@@H](C)CC3(C)C)n2)cc1` [Compound 2132, N-[(2-amino-3-pyridyl)sulfonyl]-6-(p-tolyl)-2-[(4S)-2,2,4-trimethylpyrrolidin-1-yl]pyridine-3-carboxamide], the EC30 is below 3000 nM.
On the same count and under the same terms, to `COc1ncc(-c2ccc(C(=O)NS(=O)(=O)c3cccnc3N)c(N3C[C@@H](C)CC3(C)C)n2)cc1C` [Compound 2564, N-[(2-amino-3-pyridyl)sulfonyl]-6-(6-methoxy-5-methyl-3-pyridyl)-2-[(4S)-2,2,4-trimethylpyrrolidin-1-yl]pyridine-3-carboxamide] belongs below 3000 nM; to `CC1CN(c2ncccc2C(=O)NS(=O)(=O)c2cccc(OCCc3ccsc3)n2)C(C)(C)C1` (centres unmarked) [Compound 2161, N—[[6-[2-(3-thienyl)ethoxy]-2-pyridyl]sulfonyl]-2-(2,2,4-trimethylpyrrolidin-1-yl)pyridine-3-carboxamide], below 3000 nM; to `CC1CN(c2ncccc2C(=O)NS(=O)(=O)c2cccc(OCC3CC=CCC3C)n2)C(C)(C)C1` (centres unmarked) [Compound 2001, N—[[6-[(6-methylcyclohex-3-en-1-yl)methoxy]-2-pyridyl]sulfonyl]-2-(2,2,4-trimethylpyrrolidin-1-yl)pyridine-3-carboxamide], below 3000 nM.
On the same count and under the same terms, to `C[C@@H]1CN(c2nc(-c3cccc4c3OCC4)ccc2C(=O)NS(=O)(=O)c2cccnc2N)C(C)(C)C1` [Compound 2163, N-[(2-amino-3-pyridyl)sulfonyl]-6-(2,3-dihydrobenzofuran-7-yl)-2-[(4S)-2,2,4-trimethylpyrrolidin-1-yl]pyridine-3-carboxamide] belongs below 3000 nM.
Same read-out and setting: to `CC(C)COc1ccccc1-c1ccc(C(=O)NS(=O)(=O)c2ccc[nH]c2=O)c(N2C[C@@H](C)CC2(C)C)n1` [Compound 2629, 6-(2-isobutoxyphenyl)-N-[(2-oxo-1H-pyridin-3-yl)sulfonyl]-2-[(4S)-2,2,4-trimethylpyrrolidin-1-yl]pyridine-3-carboxamide] belongs below 3000 nM; to `CC(C)Cc1ccc(C(=O)NS(=O)(=O)c2ccc[nH]c2=O)c(N2C[C@@H](C)CC2(C)C)n1` [Compound 2467, 6-isobutyl-N-[(2-oxo-1H-pyridin-3-yl)sulfonyl]-2-[(4S)-2,2,4-trimethylpyrrolidin-1-yl]pyridine-3-carboxamide], below 3000 nM.
As to `COc1ccc(OC)c(Nc2cccc(S(=O)(=O)NC(=O)c3cccnc3N3CC(C)CC3(C)C)n2)c1` (centres unmarked) [Compound 2179, N—[[6-(2,5-dimethoxyanilino)-2-pyridyl]sulfonyl]-2-(2,2,4-trimethylpyrrolidin-1-yl)pyridine-3-carboxamide], the EC30 is below 3000 nM.
Same read-out and setting: to `CCOc1cc(C)cc(-c2ccc(C(=O)NS(=O)(=O)c3ccc[nH]c3=O)c(N3C[C@@H](C)CC3(C)C)n2)c1` [Compound 2512, 6-(3-ethoxy-5-methyl-phenyl)-N-[(2-oxo-1H-pyridin-3-yl)sulfonyl]-2-[(4S)-2,2,4-trimethylpyrrolidin-1-yl]pyridine-3-carboxamide] belongs below 3000 nM; to `C[C@@H]1CN(c2nc(-c3cccc4[nH]ccc34)ccc2C(=O)NS(=O)(=O)c2ccc[nH]c2=O)C(C)(C)C1` [Compound 2636, 6-(1H-indol-4-yl)-N-[(2-oxo-1H-pyridin-3-yl)sulfonyl]-2-[(4S)-2,2,4-trimethylpyrrolidin-1-yl]pyridine-3-carboxamide], above 10000 nM; to `C[C@@H]1CN(c2nc(-c3cccc(Cl)c3)ccc2C(=O)NS(=O)(=O)c2cccnc2N)C(C)(C)C1` [Compound 2183, N-[(2-amino-3-pyridyl)sulfonyl]-6-(3-chlorophenyl)-2-[(4S)-2,2,4-trimethylpyrrolidin-1-yl]pyridine-3-carboxamide], below 3000 nM.
Still for that read-out and setting: to `CCOCCOCCN(C)c1ncc(-c2ccc(C(=O)NS(=O)(=O)c3cccc(N)n3)c(N3C[C@@H](C)CC3(C)C)n2)cc1C` [Compound 2681] belongs below 3000 nM.

The assay is the same for the next values; noted with them: Table 3; compounds of Table 1 as modulators of CFTR activity; protocol not stated.
As for `Cc1cc(C)c(Oc2nc(-c3ccccc3)ccc2C(=O)NS(=O)(=O)c2ccc[nH]c2=O)c(C)c1` [Compound 654, N-[(2-oxo-1H-pyridin-3-yl)sulfonyl]-6-phenyl-2-(2,4,6-trimethylphenoxy)pyridine-3-carboxamide], the EC30 entry was “+++ (“+++” means <3 uM)”.
For the molecule `CC(C)COc1cc(F)cc(-c2ccc(C(=O)NS(=O)(=O)c3ccc[nH]c3=O)c(N3[C@H](C)CC[C@@H]3C)n2)c1` [Compound 307, 2-(2,5-dimethylpyrrolidin-1-yl)-6-(3-fluoro-5-isobutoxy-phenyl)-N-[(2-oxo-1H-pyridin-3-yl)sulfonyl]pyridine-3-carboxamide], the EC30 result is “+++ (“+++” means <3 uM)”.
The same measure, in the same setting: the same measure for `CC(C)COc1cc(F)cc(-c2ccc(C(=O)NS(=O)(=O)c3cccc(N)n3)c(N3CCC(C(F)(F)F)C3(C)C)n2)c1` (centres unmarked) [Compound 780, N-[(6-amino-2-pyridyl)sulfonyl]-2-[2,2-dimethyl-3-(trifluoromethyl)pyrrolidin-1-yl]-6-(3-fluoro-5-isobutoxy-phenyl)pyridine-3-carboxamide]: “+++ (“+++” means <3 uM)”; for `CC(C)CNc1ccc(-c2ccc(C(=O)NS(=O)(=O)c3cccc(N)n3)c(N3CC(C)CC3(C)C)n2)cn1` (centres unmarked) [Compound 569, N-[(6-amino-2-pyridyl)sulfonyl]-6-[16-(isobutylamino)-3-pyridyl]-2-(2,2,4-trimethylpyrrolidin-1-yl)pyridine-3-carboxamide]: “+++ (“+++” means <3 uM)”; for `Cc1ccc(-c2nc(C(C)(C)C)ccc2C(=O)NS(=O)(=O)c2cccc(N)c2)cc1C` [Compound 274, N-(3-aminophenyl)sulfonyl-6-tert-butyl-2-(3,4-dimethylphenyl)pyridine-3-carboxamide]: “+++ (“+++” means <3 uM)”.
For `Cc1cc(C)c(Oc2nc(-c3cc(C(F)(F)F)nn3C)ccc2C(=O)NS(=O)(=O)c2cccc(N)n2)c(C)c1` [Compound 457, N-[(6-amino-2-pyridyl)sulfonyl]-6-[2-methyl-5-(trifluoromethyl)pyrazol-3-yl]-2-(2,4,6-trimethylphenoxy)pyridine-3-carboxamide], the EC30 result was “+++ (“+++” means <3 uM)”.
Consider `Cc1cc(C)c(Oc2nc(-c3cccc(CC#N)c3)ccc2C(=O)NS(=O)(=O)c2cccc(N)n2)c(C)c1` [Compound 388, N-[(6-amino-2-pyridyl)sulfonyl]-6-[3-(cyanomethyl)phenyl]-2-(2,4,6-trimethylphenoxy)pyridine-3-carboxamide], for which the EC30 result is “++ (“++” means between 3 uM and 10 uM)”.
Same read-out and setting: the same measure for `Cc1cc(C)c(CN2Cc3ccccc3CC2C(=O)NS(=O)(=O)c2cccc(N)c2)c(C)c1` (centres unmarked) [Compound 213, N-(3-aminophenyl)sulfonyl-2-[(2,4,6-trimethylphenyl)methyl]-3,4-dihydro-1H-isoquinoline-3-carboxamide]: “+++ (“+++” means <3 uM)”.
In the case of `CC(C)COc1cc(F)cc(-c2ccc(C(=O)NS(=O)(=O)c3ccn[nH]3)c(N3C[C@H](C)C[C@H](C)C3)n2)c1` [Compound 642, 2-[(3R,5S)-3,5-dimethyl-1-piperidyl]-6-(3-fluoro-5-isobutoxy-phenyl)-N-(1H-pyrazol-5-ylsulfonyl)pyridine-3-carboxamide], the EC30 result is reported as “+++ (“+++” means <3 uM)”.
On to `Cc1cc(C)c(Cn2c(C(=O)NS(=O)(=O)c3cccc(N)c3)cc3cccnc32)c(C)c1` [Compound 184, N-(3-aminophenyl)sulfonyl-1-[(2,4,6-trimethylphenyl)methyl]pyrrolo[2,3-b]pyridine-2-carboxamide], for which the EC30 entry is “++ (“++” means between 3 uM and 10 uM)”.
Still for that read-out and setting: the same measure for `Cc1cc(C)c(Cn2nc(C(C)(C)C)cc2C(=O)NS(=O)(=O)c2cccc(N(C)C)c2C)c(C)c1` [Compound 104, 5-tert-butyl-N-[3-(dimethylamino)-2-methyl-phenyl]sulfonyl-2-[(2,4,6-trimethylphenyl)methyl]pyrazole-3-carboxamide]: “+++ (“+++” means <3 uM)”; for `Cc1cc(C)c(Cn2nc(OCc3ccccc3)cc2C(=O)NS(=O)(=O)c2cccc(N)c2)c(C)c1` [Compound 42, N-(3-aminophenyl)sulfonyl-5-benzyloxy-2-[(2,4,6-trimethylphenyl)methyl]pyrazole-3-carboxamide]: “++ (“++” means between 3 uM and 10 uM)”.
On the same count and under the same terms, the same measure for `CC(C)COc1cc(F)cc(-c2ccc(C(=O)NS(=O)(=O)c3cccc(=O)[nH]3)c(N3CCC(C)(C)CC3)n2)c1` [Compound 775, 2-(4,4-dimethyl-1-piperidyl)-6-(3-fluoro-5-isobutoxy-phenyl)-N-[(6-oxo-1H-pyridin-2-yl)sulfonyl]pyridine-3-carboxamide]: “+++ (“+++” means <3 uM)”; for `Cc1cc(C)c(Cn2c(C(=O)NS(=O)(=O)c3ccccc3)cc3ccccc32)c(C)c1` [Compound 264, N-(benzenesulfonyl)-1-[(2,4,6-trimethylphenyl)methyl]indole-2-carboxamide]: “+++ (“+++” means <3 uM)”.

The record behind these values is patent publication US10758534B2 (Vertex Pharmaceuticals Incorporated, priority 2014, dated 2020).
